Data reported in PMC8957926, “Identification of a Novel Chromate and Selenite Reductase FesR in Alishewanella sp. WH16-1” (Frontiers in Microbiology, 2022).

Experiments:
[1] = molecular target: T1, FesR (Alishewanella sp. WH16-1, UniProt A0A0T5PLD3); assay: residual Cr(VI) by diphenylcarbazide colorimetry; type: biochemical; details: 1 mmol/L NADPH, pH 7.0, 50 °C, Tris-HCl, 10 min, no added FAD
T1 construct: Full-length, no signal peptide predicted, GST-tagged (pGEX-6p-1), eluted with glutathione, expressed in E. coli BL21(DE3); predicted 127 kDa with tag; FAD domain 16-520, two 4Fe-4S clusters 525-625

[2] = system: O=[Se](O)O; assay: purified protein; details: 1 mmol/L NADPH, pH 7.0, 50 °C, Tris-HCl, 10 min, no added FAD
[3] = molecular target: T2, FesR (Alishewanella sp. WH16-1, UniProt A0A0T5PLD3, R385A); assay: enhancement of Cr(VI) and Se(IV) reduction by added FAD; type: biochemical; details: […] FAD, […] NADPH, […] K2CrO4 or Na2SeO3, optimum pH and temperature (pH […] °C)
T2 construct: gene AAY72_06850; Full-length, no signal peptide predicted, GST-tagged (pGEX-6p-1), eluted with glutathione, expressed in E. coli BL21(DE3); predicted 127 kDa with tag; FAD domain 16-520, two 4Fe-4S clusters 525-625
T2 sequence (A0A0T5PLD3 1-919 R385A): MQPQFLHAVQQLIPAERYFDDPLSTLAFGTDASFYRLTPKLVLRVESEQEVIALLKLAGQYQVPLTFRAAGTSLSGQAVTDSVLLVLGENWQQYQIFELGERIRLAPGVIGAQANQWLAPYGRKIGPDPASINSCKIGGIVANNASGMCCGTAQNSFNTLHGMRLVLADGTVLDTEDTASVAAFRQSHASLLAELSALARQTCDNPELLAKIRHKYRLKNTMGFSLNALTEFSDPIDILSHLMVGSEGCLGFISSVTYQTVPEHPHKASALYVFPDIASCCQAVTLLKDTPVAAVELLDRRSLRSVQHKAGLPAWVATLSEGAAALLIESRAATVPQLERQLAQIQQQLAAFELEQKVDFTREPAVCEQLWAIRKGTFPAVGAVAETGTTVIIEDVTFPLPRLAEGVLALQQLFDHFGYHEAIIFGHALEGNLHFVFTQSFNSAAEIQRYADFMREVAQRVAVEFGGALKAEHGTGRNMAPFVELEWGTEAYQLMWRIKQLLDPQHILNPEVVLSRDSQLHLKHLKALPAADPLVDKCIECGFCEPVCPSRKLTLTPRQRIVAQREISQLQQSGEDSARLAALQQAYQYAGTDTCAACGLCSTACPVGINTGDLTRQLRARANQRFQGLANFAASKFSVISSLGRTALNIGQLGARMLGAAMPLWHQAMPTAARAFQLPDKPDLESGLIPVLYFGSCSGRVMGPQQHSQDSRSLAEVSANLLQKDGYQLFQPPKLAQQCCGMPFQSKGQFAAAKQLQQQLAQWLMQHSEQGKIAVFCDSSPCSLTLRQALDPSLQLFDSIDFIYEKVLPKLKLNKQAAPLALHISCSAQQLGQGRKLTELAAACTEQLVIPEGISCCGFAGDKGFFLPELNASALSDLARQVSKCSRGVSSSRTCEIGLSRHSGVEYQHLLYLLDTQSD

[O]=[Cr](=[O])([OH])[OH] [Cr(VI)]
Km [1]: 1680 ± 126 µM

FesR (Alishewanella sp. WH16-1)
Km [2]: 1164.0 ± 89.4 µM

Cc1cc2nc3c(=O)[nH]c(=O)nc-3n(C[C@H](O)[C@H](O)[C@H](O)COP(=O)(O)OP(=O)(O)OC[C@H]3O[C@@H](n4cnc5c(N)ncnc54)[C@H](O)[C@@H]3O)c2cc1C [FAD]
enhancement of Cr(VI) and Se(IV) reduction by added FAD [3]: FAD couldn’t enhance the enzyme activity of FesR when the predicted FAD-binding residue Arg385 was mutated
